Reference: patent publication US20140275094A1, “METHOD FOR TREATING PULMONARY ARTERIAL HYPERTENSION IN A PATIENT NOT HAVING IDIOPATHIC PULMONARY FIBROSIS” (GILEAD SCIENCES, INC., priority 2012, published 2014)

How the values were obtained:
[1] = Post-marketing spontaneous and clinical serious adverse event hepatic data (LEAP), 2 years after first approval; assay type: in vivo, human
Description: During the 2-year period since ambrisentan was first approved, the vast majority of patient exposure had been in the U.S. through Letairis Education and Access Program (LEAP). As of 14 Jun. 2009, a total of 6,622 patients had enrolled in LEAP and received at least one shipment of ambrisentan. Approximately half of the patients for whom duration of therapy was available received ambrisentan for a period of at least 6 months, resulting in a total of 3,847 patient-years of exposure. Exposure duration is depicted in FIG. 3 showing LEAP patients by exposure duration.
A total of 120 post-marketing spontaneous reports were identified for the 2-year period (15 Jun. 2007 through 14 Jun. 2009) where 119 reports were received via LEAP in the U.S. and the remaining one was received from Germany (outside of LEAP). As of 31 Mar. 2009, there were […] of exposure to ambrisentan. All reports were actively followed up in accordance with Gilead Drug Safety procedures to obtain all important information needed to assess a potential relationship with ambrisentan therapy, particularly laboratory data, medical history and concurrent medications. All reports included potential alternative causes for the hepatic events which are unrelated to ambrisentan therapy, such as right-sided heart failure due to underlying PAH, other co-morbidities or concurrent medications.
Of the 120 spontaneous reports, 55 reports were medically-confirmed suspected adverse reaction reports. A total of 28 cases were considered “clinically significant hepatic events” which are defined as (1) ALT and/or AST increases >3×ULN, (2) serum total bilirubin increases >2×ULN, (3) any hepatic event associated with potential signs/symptoms of hepatic disease, or (4) any clinically significant hepatic event term (e.g., liver failure). These cases included 24 reports of serum aminotransferase (ALT/AST) increases >3×ULN; 3 reports of elevated serum total bilirubin>2×ULN; and 1 report of elevated serum aminotransferases with signs and symptoms, but AST and ALT values were not provided. Of these 28 cases, there were 3 reports of both elevated ALT/AST>3×ULN and serum total bilirubin>2×ULN. However, these reports included probable alternate causes of the hepatic events such as sickle cell disease in a patient with baseline serum total bilirubin of ‘7.7’, suspected gall bladder disease in a patient who developed increased serum total bilirubin (5×ULN) and alkaline phosphatase (3.3×ULN) 11 days before an increase in ALT to 3.1×ULN, and documented cardiogenic shock and right-sided heart failure due to PAH.
There were 7 drug-related serious adverse event (SAE) reports from clinical studies which had evidence of alternative causes of the hepatic events or were poorly documented. Six of the reports were considered clinically significant, including one case where ALT/AST was >3×ULN and serum total bilirubin>2×ULN. However, probable causes of the hepatic events in this case included concurrent right heart failure, diagnosed after the patient admitted missing several doses of ambrisentan and 3-4 days of sildenafil and furosemide and with a baseline serum total bilirubin of 1.7×ULN.
The estimated post-marketing incidence rate of hepatic events with ambrisentan in the U.S. during the 2-year post-marketing period is 1.8% (119/6622), detected through LEAP. This rate is consistent with the background rate of placebo-treated PAH patients in clinical trials evaluating ERAs which appeared to have an incidence rate of 2%-3% over a 12- to 24-week period.

[2] = biological target: T1, human bile salt export pump (BSEP) (Homo sapiens, UniProt O95342); assay: Inhibition of hepatic transporter BSEP, Sf9 cell membrane vesicles; assay type: biochemical
T1 construct: expressed in transfected cells; host or cells: Sf9 cell membrane vesicles
T1 sequence (O95342 whole entry): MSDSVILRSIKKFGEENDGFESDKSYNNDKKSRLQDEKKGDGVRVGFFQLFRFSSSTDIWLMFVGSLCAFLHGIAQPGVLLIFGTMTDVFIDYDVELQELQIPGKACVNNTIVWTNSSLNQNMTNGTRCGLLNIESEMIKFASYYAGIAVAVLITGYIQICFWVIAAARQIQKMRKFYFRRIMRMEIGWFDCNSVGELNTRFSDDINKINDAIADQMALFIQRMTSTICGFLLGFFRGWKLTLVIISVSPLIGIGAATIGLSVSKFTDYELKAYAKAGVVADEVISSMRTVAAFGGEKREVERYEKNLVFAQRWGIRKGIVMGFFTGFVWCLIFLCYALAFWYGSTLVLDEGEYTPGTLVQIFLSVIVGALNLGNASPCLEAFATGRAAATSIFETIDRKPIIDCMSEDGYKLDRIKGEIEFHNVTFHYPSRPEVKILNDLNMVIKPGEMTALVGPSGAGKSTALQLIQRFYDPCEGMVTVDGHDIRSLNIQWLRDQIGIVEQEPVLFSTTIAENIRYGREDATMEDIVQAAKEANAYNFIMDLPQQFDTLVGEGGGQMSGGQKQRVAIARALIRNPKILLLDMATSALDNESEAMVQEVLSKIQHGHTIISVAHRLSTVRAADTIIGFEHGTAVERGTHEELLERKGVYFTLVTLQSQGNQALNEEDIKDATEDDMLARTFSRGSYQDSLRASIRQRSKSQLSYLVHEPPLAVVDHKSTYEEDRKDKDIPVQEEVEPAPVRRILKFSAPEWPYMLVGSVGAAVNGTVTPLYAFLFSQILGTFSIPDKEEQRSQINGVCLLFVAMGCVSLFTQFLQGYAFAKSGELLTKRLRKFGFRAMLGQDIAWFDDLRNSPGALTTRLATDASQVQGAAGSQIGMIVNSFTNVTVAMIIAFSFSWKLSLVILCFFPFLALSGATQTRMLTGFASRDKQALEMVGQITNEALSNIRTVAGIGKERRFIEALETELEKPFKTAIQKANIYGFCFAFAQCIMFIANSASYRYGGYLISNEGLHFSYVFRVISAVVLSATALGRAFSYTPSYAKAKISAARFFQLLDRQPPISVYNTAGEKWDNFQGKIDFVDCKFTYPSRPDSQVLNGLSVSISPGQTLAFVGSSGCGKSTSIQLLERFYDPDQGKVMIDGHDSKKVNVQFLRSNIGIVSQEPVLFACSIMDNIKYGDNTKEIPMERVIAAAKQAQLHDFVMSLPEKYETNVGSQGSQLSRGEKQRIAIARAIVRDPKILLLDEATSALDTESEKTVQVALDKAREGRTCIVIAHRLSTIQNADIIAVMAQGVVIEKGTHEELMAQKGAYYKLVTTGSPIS
Procedure: (§1) Inhibition constants (IC50) were measured for human bile salt export pump (BSEP), sodium taurocholate cotransporting polypeptide (NTCP), multidrug resistance protein 2 (MRP2), P-glycoprotein (Pgp), breast cancer resistance protein (BCRP), organic anion-transporting polypeptide 1B1 (OATP1B1), and OATP1B3 in transfected cell-lines. Known inhibitors were used as positive controls.

[3] = biological target: T2, OATP1B3 (Homo sapiens, UniProt Q9NPD5); assay: Inhibition of OATP1B3, transfected CHO cells; assay type: cell-based; settings: OAT1B3
T2 construct: expressed in transfected cells; host or cells: CHO
T2 sequence (Q9NPD5 1-702): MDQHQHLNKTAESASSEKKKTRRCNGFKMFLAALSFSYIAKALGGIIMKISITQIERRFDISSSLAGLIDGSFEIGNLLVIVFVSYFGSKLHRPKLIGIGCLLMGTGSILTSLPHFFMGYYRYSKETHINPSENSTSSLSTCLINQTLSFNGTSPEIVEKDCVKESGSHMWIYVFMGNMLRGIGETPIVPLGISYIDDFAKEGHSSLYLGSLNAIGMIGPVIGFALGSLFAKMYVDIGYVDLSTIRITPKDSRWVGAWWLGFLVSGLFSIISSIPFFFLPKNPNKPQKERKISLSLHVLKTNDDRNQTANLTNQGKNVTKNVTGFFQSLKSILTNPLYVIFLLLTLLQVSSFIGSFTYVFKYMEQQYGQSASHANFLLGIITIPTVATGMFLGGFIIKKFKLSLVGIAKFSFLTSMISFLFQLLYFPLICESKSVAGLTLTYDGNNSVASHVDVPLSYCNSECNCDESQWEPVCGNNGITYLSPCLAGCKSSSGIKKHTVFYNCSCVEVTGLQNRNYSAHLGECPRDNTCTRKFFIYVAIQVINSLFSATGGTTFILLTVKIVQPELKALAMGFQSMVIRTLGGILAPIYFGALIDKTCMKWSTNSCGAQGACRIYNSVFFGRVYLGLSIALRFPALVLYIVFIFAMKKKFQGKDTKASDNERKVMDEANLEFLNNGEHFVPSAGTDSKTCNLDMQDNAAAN
Procedure: as §1

[4] = test system: human hepatocytes; settings: cited from earlier work
[5] = among the 28 clinically significant cases

SMILES | post-marketing spontaneous reports of hepatic events, number ([1]; 15 Jun. 2007 through 14 Jun. 2009) | estimated post-marketing incidence rate of hepatic events ([1]; U.S., 2-year post-marketing period, LEAP (119/6622)) | reports of both elevated ALT/AST >3×ULN and serum total bilirubin >2×ULN, number [1, 5] | reports of elevated serum total bilirubin >2×ULN, number [1, 5] | reports of serum aminotransferase (ALT/AST) increases >3×ULN, number [1, 5] | drug-related serious adverse event (SAE) reports from clinical studies, number ([1]; hepatic events) | cases considered clinically significant hepatic events, number ([1]; of 55 medically-confirmed suspected adverse reaction reports) | incidence of hepatic events (adverse events and elevated aminotransferase levels) ([1]; post-marketing data) | effect on BSEP [2] | IC50 [3] | effect on hepatobiliary transporter activity [4] | IC50 ([2]; BSEP)
COC(c1ccccc1)(c1ccccc1)[C@H](Oc1nc(C)cc(C)n1)C(=O)O [Ambrisentan, (25)-2-[(4,6-dimethylpyrimidin-2-yl)oxy]-3-methoxy-3,3-diphenylpropanoic acid] | 120 | 1.8% | 3 | 3 | 24 | 7 | 28 | approximately 2% | no measurable effect | 44.6 ± 23.8 µM | less potent | 
COc1ccccc1Oc1c(NS(=O)(=O)c2ccc(C(C)(C)C)cc2)nc(-c2ncccn2)nc1OCCO [Bosentan] |  |  |  |  |  |  |  |  | inhibition was observed | 5.2 ± 2.1 µM | decreased transporter activity to the greatest extent | 54.4 µM
